Assay results published in patent US12329158B2, “Large-scale methods of uniformly coating packaging surfaces with a volatile antimicrobial to preserve food freshness” (AGROFRESH INC., priority 2013, dated 2025).

Columns and labels:
Escherichia coli = assay: In vitro volatile inhibition assay against bacteria (Example 8); format: cell-based; parameters: key: 0 = No colonies; 1 = Micro colonies not connected; 2 = Small colonies with some merging; 3 = Large colonies merging together; settings: 5.00 mg per disk
Protocol: For testing activity against bacteria pathogens, 12-Well (7 mL volume per well) microtiter plates are used for the in vitro inhibition assay for volatile antimicrobial compounds. A 3-mL volume of full-strength LB Agar is added to each well. After cooling, 15 μL of Escherichia coli, adjusted to an optical density of 0.02 to 0.035, and further diluted 1/10 is pipetted to the center of the agar and tilted to distribute uniformly. Small Whatman #1 filter disks (Cat. No. 1001-0155) are placed, in duplicate, on the underside of a polyethylene polymerase chain reaction (PCR) plate sealing film. For determination of the minimum inhibitory concentration (MIC), Compound A is diluted in acetone, and 5 mg of compound is added to the disks. The acetone is permitted to evaporate for 5 minutes. The headspace around the Escherichia coli inoculum is then sealed inside the well by the film with the adhering disk containing the fungicide. Plates are inverted, placed over the treated disks and sealed to prevent any of the chemical from flaking from the disk and falling onto the inoculated agar. After 3 days of storage at 4° C., cultures are transferred to 23° C. for an additional 2 days, and then evaluated for colony growth relative to control.

Penicillium expansum = assay: Blue mold on apple, contact assay; format: in vivo
Protocol: Contact Assay: […] A 250 mL solution of each concentration is used to dip two inoculated apples, one minute per apple, performed in triplicate per rate. The dipped fruits are then placed back into the […] are then placed in a secondary container and incubated at 1° C. for 5 days. After incubation, fruits are evaluated for diameter (mm) of rot development (browning) up to 7 days at 21° C.

Botrytis cinerea [1] = assay: Volatile release from materials treated by sublimation (Example 14); format: cell-based
Protocol: An in vitro assay is used to evaluate the ability of compound A to volatilize from different materials and control fungal growth. Cardboard box (Category 1), PET plastic (Polyethylene terepthalate—PET) and Polyethylene are used. The materials are cut into equal dimensions (10×19 cm^2) and placed inside a 36-L acrylic desiccator cabinet (Fisher Scientific, cat no. 08-642-23C) in duplicate.
The acetone is allowed to evaporate for 1 minute at 60° C. Compound A is then introduced as a gas into the cabinets by a sublimation device (copper tube heated to 180° C. with fan flow at 0.5 L/min) to achieve a final headspace concentration of 0.3, 0.06 and 0.012 mg/L). The chambers are then incubated at 23° C. for 24 hours, then treated materials are carefully removed and placed inside a clean 10.8 cup SnapWare airtight container (Model #109842) containing a 10-cm diameter Petri dish with PDA and inoculated with 1 μL of […] of B. cinerea. The containers are then tightly sealed for 3 days at 23° C. After 3 days of storage, cultures are evaluated for percent growth relative to control.

Botrytis cinerea [2] = assay: Volatile application to strawberries in clamshells, treated clamshell vs fruit transfer (Example 21); format: in vivo; settings: 0.1 mg/L headspace
Protocol: (§1) Eight strawberries (per repetition, in triplicate) are placed in an industry standard 1-lb PET clamshell with the stem-end facing down.
Compound A is then mixed with acetone and 100 μL of the mixture is pipetted into a small glass tube. […] Compound A is then introduced into the cabinet containing the clamshell by using the sublimation device set at 180° C. to achieve a final headspace concentration of 0.1 mg/L and equilibrated at 1° C. for 0.5 or 1 hour.
After incubation, both clamshells are removed from the treatment chamber. One clamshell is undisturbed while the fruit from the second clamshell are immediately transferred into a new untreated clamshell. All clamshells are then held at 1° C. for 5 days and then evaluated during an additional 5 days at 21° C. During the 5 days at 21° C., the fruits are evaluated for gray mold severity (scale 0 to 4, with ≤1 indicating marketable fruit and 4 indicating ≥50% of fruit surface covered by pathogen). […] The treated clamshell produces marketable fruit up to 3 days with 0.5 hour treatment (0.1), whereas fruits in new clamshells are unmarketable (2.7). Similarly, the treated clamshell produces marketable fruit up to 5 days with 1 hour treatment (0.4), whereas fruits in new clamshells are unmarketable (1.6). Thus, treatments where berries remain in the treated clamshells have the best level of control due to the compound further volatilizing over time off of the clamshell surface.

Botrytis cinerea [3] = assay: Gray mold on strawberry, contact assay (Example 23); format: in vivo
Protocol: as §1
Contact Assay: Compound A is dissolved in 85% methanol to achieve a final concentration of 250, 50, 10, or 2 mg/L. A 250 mL solution of each concentration is used to dip eight inoculated strawberry fruit for one-minute, performed in triplicate per rate. The dipped fruits are then placed back into the clamshells, which are then placed in a secondary container and incubated at 1° C. for 5 days. After incubation, fruits are evaluated for disease severity (scale 0 to 4, with ≤1 indicating marketable fruit and 4 indicating ≥50% of fruit surface covered by pathogen) up to 4 days at 21° C.

SMILES: OB1OCc2cc(F)ccc21 [Compound A, 5-fluoro-1,3-dihydro-1-hydroxy-2,1-benzoxaborole]
- Colony Rating (Escherichia coli): 1
- Browning Rot (diameter; mm) (Penicillium expansum; 2 mg/L, Day 0): 0.0 mm
- Browning Rot (diameter; mm) (Penicillium expansum; 2 mg/L, Day 2): 3.7 mm
- Browning Rot (diameter; mm) (Penicillium expansum; 2 mg/L, Day 4): 15.5 mm
- Browning Rot (diameter; mm) (Penicillium expansum; 2 mg/L, Day 7): 23.3 mm
- Browning Rot (diameter; mm) (Penicillium expansum; 10 mg/L, Day 0): 0.0 mm
- Browning Rot (diameter; mm) (Penicillium expansum; 10 mg/L, Day 2): 2.2 mm
- Browning Rot (diameter; mm) (Penicillium expansum; 10 mg/L, Day 4): 8.0 mm
- Browning Rot (diameter; mm) (Penicillium expansum; 10 mg/L, Day 7): 20.2 mm
- Browning Rot (diameter; mm) (Penicillium expansum; 50 mg/L, Day 0): 0.0 mm
- Browning Rot (diameter; mm) (Penicillium expansum; 50 mg/L, Day 2): 0.7 mm
- Browning Rot (diameter; mm) (Penicillium expansum; 50 mg/L, Day 4): 5.7 mm
- Browning Rot (diameter; mm) (Penicillium expansum; 50 mg/L, Day 7): 15.0 mm
- Browning Rot (diameter; mm) (Penicillium expansum; 250 mg/L, Day 0): 0.0 mm
- Browning Rot (diameter; mm) (Penicillium expansum; 250 mg/L, Day 2): 0.0 mm
- Browning Rot (diameter; mm) (Penicillium expansum; 250 mg/L, Day 4): 4.3 mm
- Browning Rot (diameter; mm) (Penicillium expansum; 250 mg/L, Day 7): 11.8 mm
- Incidence (%) (Botrytis cinerea [1]; Rate 0.012 mg/L, Cardboard): 100.0%
- Incidence (%) (Botrytis cinerea [1]; Rate 0.012 mg/L, Clamshell): 100.0%
- Incidence (%) (Botrytis cinerea [1]; Rate 0.012 mg/L, Polyethylene): 99.0%
- Incidence (%) (Botrytis cinerea [1]; Rate 0.06 mg/L, Cardboard): 91.7%
- Incidence (%) (Botrytis cinerea [1]; Rate 0.06 mg/L, Clamshell): 100.0%
- Incidence (%) (Botrytis cinerea [1]; Rate 0.06 mg/L, Polyethylene): 86.7%
- Incidence (%) (Botrytis cinerea [1]; Rate 0.3 mg/L, Cardboard): 9.3%
- Incidence (%) (Botrytis cinerea [1]; Rate 0.3 mg/L, Clamshell): 4.1%
- Incidence (%) (Botrytis cinerea [1]; Rate 0.3 mg/L, Polyethylene): 4.9%
- Disease Severity (0 to 4) (Botrytis cinerea [2]; Treated clamshell, treatment time 0.5 hour, Day 1): 0.0
- Disease Severity (0 to 4) (Botrytis cinerea [2]; Treated clamshell, treatment time 0.5 hour, Day 3): 0.1
- Disease Severity (0 to 4) (Botrytis cinerea [2]; Treated clamshell, treatment time 0.5 hour, Day 5): 2.3
- Disease Severity (0 to 4) (Botrytis cinerea [2]; Treated clamshell, treatment time 1 hour, Day 1): 0.0
- Disease Severity (0 to 4) (Botrytis cinerea [2]; Treated clamshell, treatment time 1 hour, Day 3): 0.0
- Disease Severity (0 to 4) (Botrytis cinerea [2]; Treated clamshell, treatment time 1 hour, Day 5): 0.4
- Disease Severity (0 to 4) (Botrytis cinerea [2]; Untreated clamshell (fruit transfer), treatment time 0.5 hour, Day 1): 0.0
- Disease Severity (0 to 4) (Botrytis cinerea [2]; Untreated clamshell (fruit transfer), treatment time 0.5 hour, Day 3): 2.7
- Disease Severity (0 to 4) (Botrytis cinerea [2]; Untreated clamshell (fruit transfer), treatment time 0.5 hour, Day 5): 3.4
- Disease Severity (0 to 4) (Botrytis cinerea [2]; Untreated clamshell (fruit transfer), treatment time 1 hour, Day 1): 0.0
- Disease Severity (0 to 4) (Botrytis cinerea [2]; Untreated clamshell (fruit transfer), treatment time 1 hour, Day 3): 0.1
- Disease Severity (0 to 4) (Botrytis cinerea [2]; Untreated clamshell (fruit transfer), treatment time 1 hour, Day 5): 1.6
- Disease Severity (0 to 4) (Botrytis cinerea [3]; 2 mg/L, Day 0): 0.0
- Disease Severity (0 to 4) (Botrytis cinerea [3]; 2 mg/L, Day 1): 0.0
- Disease Severity (0 to 4) (Botrytis cinerea [3]; 2 mg/L, Day 2): 0.6
- Disease Severity (0 to 4) (Botrytis cinerea [3]; 2 mg/L, Day 3): 1.1
- Disease Severity (0 to 4) (Botrytis cinerea [3]; 2 mg/L, Day 4): 1.9
- Disease Severity (0 to 4) (Botrytis cinerea [3]; 10 mg/L, Day 0): 0.0
- Disease Severity (0 to 4) (Botrytis cinerea [3]; 10 mg/L, Day 1): 0.0
- Disease Severity (0 to 4) (Botrytis cinerea [3]; 10 mg/L, Day 2): 0.0
- Disease Severity (0 to 4) (Botrytis cinerea [3]; 10 mg/L, Day 3): 0.3
- Disease Severity (0 to 4) (Botrytis cinerea [3]; 10 mg/L, Day 4): 1.0
- Disease Severity (0 to 4) (Botrytis cinerea [3]; 50 mg/L, Day 0): 0.0
- Disease Severity (0 to 4) (Botrytis cinerea [3]; 50 mg/L, Day 1): 0.0
- Disease Severity (0 to 4) (Botrytis cinerea [3]; 50 mg/L, Day 2): 0.0
- Disease Severity (0 to 4) (Botrytis cinerea [3]; 50 mg/L, Day 3): 0.0
- Disease Severity (0 to 4) (Botrytis cinerea [3]; 50 mg/L, Day 4): 0.0
- Disease Severity (0 to 4) (Botrytis cinerea [3]; 250 mg/L, Day 0): 0.0
- Disease Severity (0 to 4) (Botrytis cinerea [3]; 250 mg/L, Day 1): 0.0
- Disease Severity (0 to 4) (Botrytis cinerea [3]; 250 mg/L, Day 2): 0.0
- Disease Severity (0 to 4) (Botrytis cinerea [3]; 250 mg/L, Day 3): 0.0
- Disease Severity (0 to 4) (Botrytis cinerea [3]; 250 mg/L, Day 4): 0.0
